Test results: patent US4020111A, “Propynyloxy alkyl arene insecticides” (priority 1975, dated 1977)

Legend:
[1] = system: Wilson strain house flies; assay type: in vivo, house fly (susceptible Wilson strain); conditions: for Contact Synergistic Ratio, Carbaryl (LC50 insecticide alone / LC50 with synergist): in vivo; for Contact Synergistic Ratio, Pyrolan (LC50 insecticide alone / LC50 with synergist): synergist to insecticide 5:1 by weight, 24 h
Outline: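 Flies held at room temperature in glass jars coated with acetone-deposited insecticide film, alone or with synergist at 5:1 synergist:insecticide by weight; 10% sugar supplied.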

[2] = system: CH strain flies; assay: spray application of pyrethrum, average percent knockdown with time; assay type: in vivo, housefly (CH strain); conditions: pyrethrum 100 + synergist 100 mg/cc
Protocol: The average percent knockdown of CH strain flies, as a function of time, resulting from spray application of pyrethrum, alone and with synergists, are given in Table XXXXIII. Duplicate tests were performed using 50 CH strain houseflies per test. Test solutions of 100 mg and 200mg of pyrethrum per cc of acetone, 200 mg of synergist per cc of acetone, and a mixture of 100 mg of pyrethrum and 100 mg of synergist per cc of acetone were prepared. The fifty CH strain houseflies were put in a 40 liter spray chamber and 1 cc of the test solution was sprayed into the test chamber with a spray pistol. The synergists alone at 200 mg/cc caused no knockdown.

[3] = system: polyvalent resistant (CH strain) houseflies; assay: whole plant or invertebrate; assay type: in vivo, housefly (CH strain); conditions: CH strain
[4] = system: Rutgers A strain house flies; assay: topical application test, percent kill after 24 hours, Rutgers A strain; assay type: in vivo, house fly (resistant Rutgers A strain)
Protocol: In Table IX, and in the tables following it, the doses of topically applied insecticides and of synergists unless otherwise noted are expressed as micrograms per fly (μg/fly).
The synergistic effect of O-(2-propynyl) oximes with mobam was determined from topical application tests on susceptible, female, IN/WHO strain house flies and from tests on resistant, female, Rutgers A strain house flies. The synergist and insecticide were dissolved in ACS Grade acetone in such quantities that a 1.0μ liter volume applied to the thorax of 3-to-5 day old CO2 -anesthetized female adult house flies contained the desired dosage. After being treated, the flies were confined, 10 to a plaster petri dish, with 3-5 dishes/treatment, and held for 24-hr. observation of mortality. Reconstituted skim milk on cotton dental wicks was provided during the holding period. The percent kills after 24 hours are shown in Table X for the IN/WHO strain and Table XI for the Rutgers A strain.
The synergistic effect of benzyl 2-propynyl ethers with mobam was determined from topical application tests on IN/WHO and Rutgers A strain houseflies, following the procedure of Example 5. The percent kills after 24 hours are shown in Table XIV for the IN/WHO strain and in Table XV for the Rutgers A strain.
The synergistic effect with Diazinon of compounds I-B, I-D, I-F, I-G, I-H and I-I, identified in Tables I and Ia, was determined from topical application tests on IN/WHO strain houseflies and on Rutgers A strain houseflies by the procedure of Example 5. The percent kills after 24 hours are shown in Table XXV for the IN/WHO strain and Table XXVI for the Rutgers A strain.
The synergistic effect with GS 13005 of compounds I-A, I-B, I-D, I-E, I-F, I-G and I-I was determined from topical application tests to IN/WHO strain, Rutgers A strain and polyvalent CH strain houseflies using the procedures of Example 5. The percent kills of the IN/WHO strain flies after 24 hours are shown in Table XXVIII; of the Rutgers A strain, in Table XXIX; and of the polyvalent CH strain, in Table XXX. The doses of insecticide alone to the CH strain files caused 10-40% mortality.
The synergistic effect with Diazinon and GS 13005 of various of the benzyl 2-propynyl ethers identified in Tables II and IIa was determined by topical application tests on IN/WHO strain, and Rutgers A strain and polyvalent, resistant, CH strain houseflies using the procedures of Example 5. The percent kills after 24 hours of IN/WHO strain flies are shown in Table XXXI; of Rutgers A strain flies, in Table XXXII; and of CH strain flies, in Table XXXIII. The doses of insecticide alone to the CH strain flies caused 10-40% mortality.
The synergistic effect on IN/WHO strain flies and Rutgers A strain flies of compound IV-C with GS 13005 and with Diazinon was determined by the topical application procedure of Example 5. The percent kills of IN/WHO strain flies after 24 hours are shown in Tables XXXVI and XXXVII; the percent kills of Rutgers A strain flies are shown in Tables XXXVIII and XXXIX.

[5] = Dimetilan 2 + synergist 4 μg/fly
[6] = GS 13005 1 + synergist 2 μg/fly
[7] = GS 13798 1 + synergist 2 μg/fly
[8] = Pyrethrum 2 + synergist 4 μg/fly
[9] = Mobam 0.15 + synergist 0.75 μg/fly
[10] = Mobam 0.30 + synergist 1.5 μg/fly
[11] = Diazinon 5 + synergist 10 μg/fly

| SMILES | Contact Synergistic Ratio, Carbaryl (LC50 insecticide alone / LC50 with synergist) [1] | Contact Synergistic Ratio, Pyrolan (LC50 insecticide alone / LC50 with synergist) [1] | average percent knockdown ([2]; 5 min) [%] | average percent knockdown ([2]; 10 min) [%] | average percent knockdown ([2]; 15 min) [%] | average percent knockdown ([2]; 20 min) [%] | average percent knockdown ([2]; 25 min) [%] | average percent knockdown ([2]; 30 min) [%] | average percent knockdown ([2]; 40 min) [%] | average percent knockdown ([2]; 50 min) [%] | average percent knockdown ([2]; 60 min) [%] | percent kill after 24 hours [3, 5] [%] | percent kill after 24 hours [3, 6] [%] | percent kill after 24 hours [3, 7] [%] | percent kill after 24 hours [3, 8] [%] | percent kill after 24 hours [4, 9] [%] | percent kill after 24 hours [4, 10] [%] | percent kill after 24 hours [3, 11] [%] | also measured |
| --- | --- | --- | --- | --- | --- | --- | --- | --- | --- | --- | --- | --- | --- | --- | --- | --- | --- | --- | --- |
| C#CCON=C(C)c1ccc(Cl)cc1 [I-D] | 177 | 25 | 6 | 15 | 26 | 39 | 52 | 60 | 86 | 87 | 88 | 100 | 100 | 100 | 67 | 19 | – | – | percent kill after 24 hours ([4]; Mobam 0.60 + synergist 3.0 μg/fly): 100% |
| C#CCON=C(C)c1ccc2ccccc2c1 [I-F] | 200 | 50 | – | – | – | – | – | – | – | – | – | 100 | 100 | 95 | 35 | – | 38 | – | percent kill after 24 hours ([4]; Diazinon 3.0 + synergist 3.0 μg/fly): 95%; percent kill after 24 hours ([4]; GS 13005 1.0 + synergist 5.0 μg/fly): 95% |
| C#CCON=Cc1ccc(Cl)cc1Cl [I-G] | – | – | 7 | 12 | 31 | 36 | 59 | 66 | 89 | 93 | 94 | – | 100 | – | 47 | – | – | – | percent kill after 24 hours ([4]; Diazinon 3.0 + synergist 15 μg/fly): 100% |
| C#CCOCc1ccc(Cl)c(Cl)c1 [II-C] | 100 | 15 | – | – | – | – | – | – | – | – | – | 100 | 75 | 92 | 50 | – | 20 | 95 | – |
| C#CCOCc1ccc(Cl)c(Cl)c1Cl [II-D] | 200 | 30 | – | – | – | – | – | – | – | – | – | 100 | 95 | 100 | 30 | – | – | 60 | – |
| C#CCOCc1c(Cl)ccc(Cl)c1Cl [II-E] | 120 | 20 | 5 | 9 | 17 | 44 | 55 | 59 | 77 | 93 | 95 | 100 | 100 | 100 | 78 | 17 | – | 65 | percent kill after 24 hours ([4]; synergist alone 7.5 μg/fly): 0% |
